Measured values reported in ChEMBL document CHEMBL1201862, “PubChem BioAssay data set” (2004).
Active and inactive are the calls of the source.

Experiments:
[1] = human group III sPLA2 inhibitors, dose response, biochemical, QFRET, IC50 (AID 743457);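 also: green fluorescence rise as the enzyme cleaves BODIPY PC-A2 in liposomes; potency for inhibition of the enzyme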
[2] = biological target: Glyceraldehyde-3-phosphate dehydrogenase (Homo sapiens, UniProt P04406)
[3] = biological target: T1, Fructose-bisphosphate aldolase (Mycobacterium tuberculosis, UniProt P9WQA3); experiment: Fluorescence-based biochemical high throughput dose response assay for inhibitors of the fructose-bisphosphate aldolase (FBA) of M. tuberculosis.; assay type: functional
T1 sequence (P9WQA3 whole entry): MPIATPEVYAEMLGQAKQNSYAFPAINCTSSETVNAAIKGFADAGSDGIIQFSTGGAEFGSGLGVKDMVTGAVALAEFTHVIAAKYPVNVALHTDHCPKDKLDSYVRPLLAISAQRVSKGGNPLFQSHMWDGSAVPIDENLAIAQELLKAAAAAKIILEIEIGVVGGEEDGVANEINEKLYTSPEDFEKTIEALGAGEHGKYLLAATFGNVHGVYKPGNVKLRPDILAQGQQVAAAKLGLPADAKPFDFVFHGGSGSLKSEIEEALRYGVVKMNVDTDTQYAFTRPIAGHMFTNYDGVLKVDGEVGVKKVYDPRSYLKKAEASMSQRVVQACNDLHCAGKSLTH

fMet-Leu-Phe receptor = biological target: T2, fMet-Leu-Phe receptor (Homo sapiens, UniProt P21462); experiment: FPR ligands, dose response (AID 519); assay type: functional
T2 sequence (P21462 whole entry): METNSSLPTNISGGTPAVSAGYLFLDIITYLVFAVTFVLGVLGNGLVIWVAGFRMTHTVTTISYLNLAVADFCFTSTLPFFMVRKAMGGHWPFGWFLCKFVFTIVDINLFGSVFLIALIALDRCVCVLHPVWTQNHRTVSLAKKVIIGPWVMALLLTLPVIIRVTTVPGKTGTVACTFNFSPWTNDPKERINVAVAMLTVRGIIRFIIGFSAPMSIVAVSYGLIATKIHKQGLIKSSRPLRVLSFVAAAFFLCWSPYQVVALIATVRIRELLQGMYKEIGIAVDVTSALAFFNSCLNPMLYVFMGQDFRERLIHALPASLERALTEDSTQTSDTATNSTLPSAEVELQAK

[4] = biological target: T3, Long-chain-fatty-acid--AMP ligase FadD28 (Mycobacterium tuberculosis, UniProt P9WQ59); experiment: Fluorescence polarization aasay to screen for inhibitors that compete for the binding of FadD28 to a bisubstrate Measured in Biochemical System Using Plate Reader - 2147-01_Inhibitor_Dose_CherryPick_Activity.; assay type: functional, Mycobacterium tuberculosis H37Rv
T3 sequence (P9WQ59 whole entry): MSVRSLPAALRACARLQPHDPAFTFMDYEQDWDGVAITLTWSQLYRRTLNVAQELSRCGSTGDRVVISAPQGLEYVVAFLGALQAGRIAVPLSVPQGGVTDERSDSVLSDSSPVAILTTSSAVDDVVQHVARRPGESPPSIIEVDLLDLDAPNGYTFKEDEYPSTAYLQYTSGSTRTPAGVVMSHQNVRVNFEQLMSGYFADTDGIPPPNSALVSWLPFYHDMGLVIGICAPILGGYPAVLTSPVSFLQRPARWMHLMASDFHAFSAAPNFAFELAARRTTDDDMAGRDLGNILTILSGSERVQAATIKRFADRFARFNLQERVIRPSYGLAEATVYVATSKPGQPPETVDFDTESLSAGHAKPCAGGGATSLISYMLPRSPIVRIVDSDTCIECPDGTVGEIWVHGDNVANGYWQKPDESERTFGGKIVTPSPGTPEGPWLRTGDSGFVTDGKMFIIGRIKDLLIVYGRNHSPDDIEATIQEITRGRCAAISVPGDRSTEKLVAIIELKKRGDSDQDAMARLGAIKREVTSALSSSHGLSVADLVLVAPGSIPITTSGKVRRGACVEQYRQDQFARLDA

[5] = A549 cell cytotoxicity, dose response, cytotoxicity control, plate reader, cherry-pick, antagonist series (AID 743412); assay type: functional, cell-based
[6] = LGR2 antagonists, dose response, cell-based, HEK293, CRE-luciferase reporter, cherry pick, set 2 (AID 743343); assay type: functional;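 also: transfected cells were stimulated with diluted bursicon conditioned medium after compound addition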
[7] = MC4R antagonists, dose response, counter-screen for LGR2 antagonist project, cell-based, plate reader, cherry pick (AID 743444); assay type: functional;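 also: transfected HEK 293 cells stimulated with alpha-MSH peptide; potency of inhibitors of the alpha-MSH evoked signal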
[8] = biological target: Photoreceptor-specific nuclear receptor (Homo sapiens, UniProt Q9Y5X4); assay type: functional, cell-based;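 also: CHO-S cells with Gal4-NCOR and VP16-NR2E3 two-hybrid luciferase reporter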
Sequence of Photoreceptor-specific nuclear receptor (Q9Y5X4 whole entry, the tested form may be a part): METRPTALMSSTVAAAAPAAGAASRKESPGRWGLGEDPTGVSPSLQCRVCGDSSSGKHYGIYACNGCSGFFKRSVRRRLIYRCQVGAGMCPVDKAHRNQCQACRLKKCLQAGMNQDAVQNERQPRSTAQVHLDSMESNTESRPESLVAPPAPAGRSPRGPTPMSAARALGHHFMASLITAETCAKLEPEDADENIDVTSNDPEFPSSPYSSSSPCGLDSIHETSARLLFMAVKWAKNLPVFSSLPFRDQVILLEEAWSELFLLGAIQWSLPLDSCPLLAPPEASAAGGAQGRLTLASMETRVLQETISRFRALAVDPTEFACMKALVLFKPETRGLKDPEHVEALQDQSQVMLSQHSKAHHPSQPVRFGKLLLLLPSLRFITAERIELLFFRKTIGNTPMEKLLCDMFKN

[9] = biological target: T4, Oxysterols receptor LXR-beta (Homo sapiens, UniProt P55055); assay type: functional, cell-based;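 also: agonist activity at LXR measured by a cell-based luminescence readout across a dose range, run as a counterscreen for daf-12 agonists; potency for activation of Gal4-LXR reporter so compounds are agonists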
T4 sequence (P55055 whole entry): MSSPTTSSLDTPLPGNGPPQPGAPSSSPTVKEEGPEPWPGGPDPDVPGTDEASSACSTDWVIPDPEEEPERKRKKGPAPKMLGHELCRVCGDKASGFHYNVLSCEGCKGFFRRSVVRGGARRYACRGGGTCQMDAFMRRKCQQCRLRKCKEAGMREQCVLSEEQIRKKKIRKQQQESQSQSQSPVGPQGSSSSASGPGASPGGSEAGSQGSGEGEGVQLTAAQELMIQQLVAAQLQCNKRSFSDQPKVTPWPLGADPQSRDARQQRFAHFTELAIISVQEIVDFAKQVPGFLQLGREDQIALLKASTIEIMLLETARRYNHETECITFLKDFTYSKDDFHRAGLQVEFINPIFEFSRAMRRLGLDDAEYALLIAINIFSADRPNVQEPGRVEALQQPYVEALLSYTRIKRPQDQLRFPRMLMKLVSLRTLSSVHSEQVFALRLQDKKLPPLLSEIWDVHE

[10] = Luminescence-based cell-based high throughput dose response assay to identify activators of the DAF-12 from the parasite S. stercoralis (ssDAF-12).; assay type: functional
[11] = biological target: T4, Oxysterols receptor LXR-beta; experiment: LXR agonists, Gal4 luciferase reporter, dose response, counter-screen for ssDAF-12 agonist project, cell-based, luminescence, HEK293, S. stercoralis campaign (AID 720737); assay type: functional; details: read-out: IC50 (the source's name)
[12] = cytotoxicity in HEK-293T cells, dose response, cytotoxicity control for TCR NF-kB inhibitor project, luminescence, T-cell screen hits (AID 489026); assay type: functional, cell-based;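 also: cells exposed to compound about 14 hours before the viability readout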
Nonstructural protein 1 = Nonstructural protein 1 (Influenza A virus, UniProt Q194T2); assay type: functional, Influenza A virus (A/California/07/2009(H1N1))
Sequence of Nonstructural protein 1 (Q194T2 whole entry): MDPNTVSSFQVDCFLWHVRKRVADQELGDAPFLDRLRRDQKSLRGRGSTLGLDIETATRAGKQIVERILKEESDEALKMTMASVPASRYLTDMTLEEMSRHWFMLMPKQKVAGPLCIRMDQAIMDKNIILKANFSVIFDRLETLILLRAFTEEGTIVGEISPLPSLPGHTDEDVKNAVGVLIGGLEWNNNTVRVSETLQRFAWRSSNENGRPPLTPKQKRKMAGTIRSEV

[13] = biological target: T5, Apoptotic protease-activating factor 1 (Homo sapiens, UniProt O14727); assay type: functional
T5 sequence (O14727 whole entry): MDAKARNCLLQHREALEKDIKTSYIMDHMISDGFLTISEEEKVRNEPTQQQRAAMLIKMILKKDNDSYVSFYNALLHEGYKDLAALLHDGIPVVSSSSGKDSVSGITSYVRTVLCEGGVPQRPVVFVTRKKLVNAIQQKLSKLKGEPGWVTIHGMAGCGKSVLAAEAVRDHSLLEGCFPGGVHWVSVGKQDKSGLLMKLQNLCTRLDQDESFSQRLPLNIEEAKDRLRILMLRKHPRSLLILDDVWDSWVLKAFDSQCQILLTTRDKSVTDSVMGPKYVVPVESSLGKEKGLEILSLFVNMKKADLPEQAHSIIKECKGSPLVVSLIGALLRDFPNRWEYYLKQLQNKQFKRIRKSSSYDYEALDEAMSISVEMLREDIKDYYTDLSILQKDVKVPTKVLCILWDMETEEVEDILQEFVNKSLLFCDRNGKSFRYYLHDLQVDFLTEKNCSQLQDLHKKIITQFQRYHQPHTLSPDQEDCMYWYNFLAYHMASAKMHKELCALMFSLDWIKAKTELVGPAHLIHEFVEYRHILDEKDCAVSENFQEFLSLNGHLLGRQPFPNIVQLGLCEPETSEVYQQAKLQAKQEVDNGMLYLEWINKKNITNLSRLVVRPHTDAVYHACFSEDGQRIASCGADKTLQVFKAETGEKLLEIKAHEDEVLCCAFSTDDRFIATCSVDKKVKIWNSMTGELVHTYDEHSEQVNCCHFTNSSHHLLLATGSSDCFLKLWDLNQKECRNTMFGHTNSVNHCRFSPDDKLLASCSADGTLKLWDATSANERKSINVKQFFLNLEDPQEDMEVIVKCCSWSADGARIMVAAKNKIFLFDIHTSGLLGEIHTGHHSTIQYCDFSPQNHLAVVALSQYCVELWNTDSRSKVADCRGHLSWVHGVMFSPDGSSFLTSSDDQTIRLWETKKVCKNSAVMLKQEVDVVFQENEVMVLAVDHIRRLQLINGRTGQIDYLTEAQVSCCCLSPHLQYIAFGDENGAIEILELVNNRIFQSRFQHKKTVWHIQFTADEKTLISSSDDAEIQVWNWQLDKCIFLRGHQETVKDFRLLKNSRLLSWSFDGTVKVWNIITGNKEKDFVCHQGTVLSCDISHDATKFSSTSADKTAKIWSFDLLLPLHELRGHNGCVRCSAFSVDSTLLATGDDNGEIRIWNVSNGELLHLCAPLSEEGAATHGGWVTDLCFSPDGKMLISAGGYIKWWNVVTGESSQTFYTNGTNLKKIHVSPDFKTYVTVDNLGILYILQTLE

INS1 = experiment: beta cell apoptosis inhibitors, cytokine rescue, dose response, luminescence, retest (AID 449756); assay type: functional, cell-based; details: Rattus norvegicus;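 also: cell death triggered by IL-1 beta plus TNF-alpha plus IFN-gamma mixture; protective hits raise ATP signal compared with cytokine alone wells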
[14] = HeLa cell cytotoxicity, dose response, cytotoxicity control for MgcRacGAP inhibitor project (AID 624300); assay type: functional
[15] = biological target: T6, Rac GTPase-activating protein 1 (Homo sapiens, UniProt Q9H0H5); experiment: MgcRacGAP GTPase-activating activity inhibitors, confirmation, biochemical, ADP Hunter fluorescence, primary and confirmatory (AID 624330); assay type: functional
T6 sequence (Q9H0H5 whole entry): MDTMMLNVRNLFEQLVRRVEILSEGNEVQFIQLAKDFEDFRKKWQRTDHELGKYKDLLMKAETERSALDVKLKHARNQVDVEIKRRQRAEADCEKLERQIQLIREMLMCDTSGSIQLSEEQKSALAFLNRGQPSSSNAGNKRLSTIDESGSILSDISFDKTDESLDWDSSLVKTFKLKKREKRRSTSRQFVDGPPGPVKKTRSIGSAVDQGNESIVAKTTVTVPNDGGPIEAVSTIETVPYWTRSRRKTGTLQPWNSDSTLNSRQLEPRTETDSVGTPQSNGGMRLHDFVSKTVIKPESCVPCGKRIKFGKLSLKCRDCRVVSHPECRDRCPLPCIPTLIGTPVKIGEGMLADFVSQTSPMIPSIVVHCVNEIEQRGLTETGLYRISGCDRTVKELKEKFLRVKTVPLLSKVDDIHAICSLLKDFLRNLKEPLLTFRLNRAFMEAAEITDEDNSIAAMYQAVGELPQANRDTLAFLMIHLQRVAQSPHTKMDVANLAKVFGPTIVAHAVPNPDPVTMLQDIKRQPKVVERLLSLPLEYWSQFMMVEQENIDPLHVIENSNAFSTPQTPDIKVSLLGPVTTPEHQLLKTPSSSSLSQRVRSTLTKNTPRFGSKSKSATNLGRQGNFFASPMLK

Cytochrome P450 2D6 = Cytochrome P450 2D6 (Homo sapiens, UniProt P10635);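 also: CYP2D6 member of a cytochrome P450 panel assay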
Sequence of Cytochrome P450 2D6 (P10635 whole entry): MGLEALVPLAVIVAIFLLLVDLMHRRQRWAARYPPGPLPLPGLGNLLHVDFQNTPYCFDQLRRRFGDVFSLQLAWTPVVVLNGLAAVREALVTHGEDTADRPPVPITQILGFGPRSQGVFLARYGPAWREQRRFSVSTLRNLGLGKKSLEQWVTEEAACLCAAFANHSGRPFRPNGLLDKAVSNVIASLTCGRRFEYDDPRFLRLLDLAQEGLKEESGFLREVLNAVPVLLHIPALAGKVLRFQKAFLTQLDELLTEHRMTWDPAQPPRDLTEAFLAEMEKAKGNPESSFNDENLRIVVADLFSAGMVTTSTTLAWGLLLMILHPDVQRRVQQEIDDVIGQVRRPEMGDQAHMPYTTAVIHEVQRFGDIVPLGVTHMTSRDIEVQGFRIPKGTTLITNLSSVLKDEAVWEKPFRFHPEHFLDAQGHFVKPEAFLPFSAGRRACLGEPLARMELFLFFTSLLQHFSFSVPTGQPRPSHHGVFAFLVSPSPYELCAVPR

Cytochrome P450 1A2 = biological target: T7, Cytochrome P450 1A2 (Homo sapiens, UniProt P05177);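 also: PubChem cytochrome P450 panel assay, CYP1A2 panel member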
T7 sequence (P05177 whole entry): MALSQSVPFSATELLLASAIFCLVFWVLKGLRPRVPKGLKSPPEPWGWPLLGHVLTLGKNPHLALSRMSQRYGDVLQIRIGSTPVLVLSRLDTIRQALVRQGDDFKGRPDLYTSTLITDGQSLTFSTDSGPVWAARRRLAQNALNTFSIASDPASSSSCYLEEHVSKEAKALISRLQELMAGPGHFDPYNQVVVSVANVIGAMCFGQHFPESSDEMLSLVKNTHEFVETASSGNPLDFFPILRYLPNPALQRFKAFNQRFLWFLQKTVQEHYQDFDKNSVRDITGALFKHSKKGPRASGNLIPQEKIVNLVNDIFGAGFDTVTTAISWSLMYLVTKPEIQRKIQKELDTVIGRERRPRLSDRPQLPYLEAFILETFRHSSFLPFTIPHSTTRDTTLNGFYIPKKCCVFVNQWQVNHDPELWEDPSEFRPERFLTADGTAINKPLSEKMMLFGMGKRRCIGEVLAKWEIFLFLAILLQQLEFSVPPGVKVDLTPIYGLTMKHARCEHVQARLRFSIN

Cytochrome P450 3A4 = Cytochrome P450 3A4 (Homo sapiens, UniProt P08684);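 also: CYP3A4 tested as one member of a cytochrome P450 panel screen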
Sequence of Cytochrome P450 3A4 (P08684 whole entry): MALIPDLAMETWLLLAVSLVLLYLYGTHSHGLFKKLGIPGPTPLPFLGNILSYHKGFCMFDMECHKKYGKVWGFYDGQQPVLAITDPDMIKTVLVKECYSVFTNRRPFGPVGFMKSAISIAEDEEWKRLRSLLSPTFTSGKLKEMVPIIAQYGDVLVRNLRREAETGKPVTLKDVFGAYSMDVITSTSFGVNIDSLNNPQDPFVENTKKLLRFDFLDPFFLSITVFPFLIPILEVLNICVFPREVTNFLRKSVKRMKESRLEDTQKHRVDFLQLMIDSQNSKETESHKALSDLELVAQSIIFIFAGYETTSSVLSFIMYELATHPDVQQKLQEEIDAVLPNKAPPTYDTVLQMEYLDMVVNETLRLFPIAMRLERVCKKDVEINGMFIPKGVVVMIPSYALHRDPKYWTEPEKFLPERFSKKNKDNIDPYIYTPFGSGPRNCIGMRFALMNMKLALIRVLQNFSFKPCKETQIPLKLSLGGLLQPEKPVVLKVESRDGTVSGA

Sequence of Glyceraldehyde-3-phosphate dehydrogenase (P04406 whole entry): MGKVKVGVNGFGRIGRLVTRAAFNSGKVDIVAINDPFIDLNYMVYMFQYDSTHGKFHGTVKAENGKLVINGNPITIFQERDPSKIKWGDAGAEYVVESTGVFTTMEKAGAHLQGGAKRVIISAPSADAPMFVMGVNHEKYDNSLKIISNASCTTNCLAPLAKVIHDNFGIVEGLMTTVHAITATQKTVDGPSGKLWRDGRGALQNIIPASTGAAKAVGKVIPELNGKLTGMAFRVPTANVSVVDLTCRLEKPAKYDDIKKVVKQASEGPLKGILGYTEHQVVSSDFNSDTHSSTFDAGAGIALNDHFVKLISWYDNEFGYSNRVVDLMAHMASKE

## O=C(CSc1nnc(-c2ccccc2)n1-c1ccc(Cl)cc1)NNC(=S)Nc1ccccc1
[1]
  IC50: > 122 µM (inactive)

## O=C(O)c1cc(S(=O)(=O)Nc2ccccc2C(=O)O)ccc1O
[2]
  IC50: > 100 µM (not active)
[3]
  IC50: > 9.99 µM (inactive)

## CCCOc1ccc2c(=O)c(N3C(=O)c4ccccc4C3=O)c(C)oc2c1
fMet-Leu-Phe receptor
  Ki: > 66.7 µM (inactive)

## CCOC(=O)N1CCC(NC(=O)c2cc3cc4cc(OC)ccc4nc3o2)CC1
[3]
  IC50: > 0.37 µM (active)

## Cc1cccc(NC(=O)CN2C(=O)N/C(=C\c3ccc(-c4cccc(C(=O)O)c4)o3)C2=O)c1
[4]
  AC50: 3.6 µM (active)

## CC(C)(C)n1cc(C(=O)c2ccc3ccccc3c2O)cn1
[5]
  AC50: > 52 µM (inactive)
[6]
  AC50: 6.45 µM (active)
[7]
  AC50: 14.3 µM (active)

## Cc1ccnc(NC(=O)C2CCN(S(=O)(=O)c3c(C)c(C)cc(C)c3C)CC2)c1
[8]
  IC50: 1.85 µM (active)
[9]
  EC50: > 67.6 µM (inactive)

## O=C1/C(=C\c2cccs2)Sc2ccc3ccccc3c21
[10]
  IC50: > 67.6 µM (inactive)
[11]
  EC50: > 67.6 µM (inactive)
[9]
  EC50: > 67.5 µM (inactive)

## COC(=O)c1ccc(C2C(C(=O)c3ccc(OC)cc3)=C(O)C(=O)N2Cc2ccco2)cc1 (centres undefined)
fMet-Leu-Phe receptor
  Ki: 43 µM (inactive)

## Cc1ccc(S(=O)(=O)NC2=CC(=Nc3ccc(O)cc3)C(=O)c3ccccc32)cc1
[12]
  IC50: 1.58 µM (active)
Nonstructural protein 1
  IC50: 7.33 µM (active)
[13]
  IC50: 2.14 µM (active)
INS1
  AC50: 588 nM (active)
[14]
  CC50: 2.86 µM (active)
[15]
  IC50: 78.2 µM (active)

## COc1ccc(CNC(=O)COC(=O)c2ccc(Br)c(S(=O)(=O)N3CCOCC3)c2)cc1
[4]
  AC50: > 100 µM (inactive)

## Cc1ccc(-c2nnc(SCC(=O)NN=C(S)Nc3ccccc3)n2C2CCCCC2)cc1
[1]
  IC50: > 122 µM (inactive)

## O=[N+]([O-])c1ccccc1/C=N/n1c(S)nnc1C1CCCCC1
[1]
  IC50: > 122 µM (inactive)

## CCN(CC)c1ccc(/C=N/NC(=O)c2ccc3c(c2)OCCO3)cc1
[4]
  AC50: 74.2 µM (active)

## NC(=Nc1ccccc1)NC(=O)c1nc(Cl)c(N)nc1N [PHENAMIL METHANESULFONATE]
[9]
  EC50: > 67.5 µM (inactive)
Cytochrome P450 2D6
  AC50: 31.6 µM (inconclusive)
Cytochrome P450 1A2
  AC50: 12.6 µM (inconclusive)
Cytochrome P450 3A4
  AC50: 39.8 µM (inconclusive)
